According to the SangsterLogP compilation:

Row | Structure (SMILES) | logP
1 | O=C(Nc1ccccc1)Nc1ccccn1 | 3.1
2 | CC(C)Nc1ccccc1N | 1.65
3 | CNc1ccccc1C(=O)OC | 2.97
4 | OCCNc1nc2ccccc2[nH]1 | 1.1
5 | CC(=O)Nc1ccccc1N | 0.13
6 | NC(=O)C(c1ccccc1)c1ccccc1 | 2.11
7 | O=C(CCl)Nc1sc2c(c1C(=O)c1ccccc1)CCCC2 | 4.58
8 | c1ccc(CNc2nc3ccccc3[nH]2)cc1 | 2.92
9 | CC(C)NC(=O)c1ccc2ccccc2c1 | 2.68
10 | CNC(=O)Nc1ccccn1 | 0.8
11 | COc1ccc(C(=O)Nc2nc3ccccc3[nH]2)cc1 | 2.89
12 | CCC(=O)NC(=O)Nc1ccccc1 | 2.19
13 | CC(C)NC(=O)c1cc2ccccc2oc1=O | 2.13
14 | CCc1ccccc1NC | 2.58
15 | NC(=O)C(C(N)=O)c1ccccc1 | -0.07
16 | CC(C)NC(=O)Nc1ccccc1 | 1.84
